Data reported in patent publication US11331369B2, “Endoparasitic depsipeptides” (Zoetis Services LLC, priority 2017, dated 2022).

Assays:
[1] = system: 4th stage larvae (L4) of Dirofilaria immitis; experiment: Dirofilaria immitis, L4 Stage (DiL4) In Vitro Assay; type: cell-based; conditions: Dirofilaria immitis, 72 h, read-out: DiL4 Minimum Effective Dose (MED), approximately 72 hours incubation; L4 larvae assessed for survival or paralysis
[2] = system: third stage larvae of Haemonchus contortus; experiment: Haemonchus contortus L3 (HcL3) Assay; type: cell-based; conditions: 96 h, read-out: HcL3 Minimum Effective Dose (MED)

Row | SMILES | minimal effective concentration [1] [µM] | minimal effective concentration [2] [µM]
1 | CC(C)C[C@H]1C(=O)O[C@H](Cc2ccc(Cn3nccc3-c3cnccn3)cc2)C(=O)N(C)[C@@H](CC(C)C)C(=O)O[C@H](C)C(=O)N(C)[C@@H](CC(C)C)C(=O)O[C@H](Cc2ccc(Cn3nccc3-c3cnccn3)cc2)C(=O)N(C)[C@@H](CC(C)C)C(=O)O[C@H](C)C(=O)N1C [Example 1b-208, (3S,6R,9S,12R,15S,18R,21S,24R)-3,9,15,21-tetraisobutyl-4,6,10,16,18,22-hexamethyl-12,24-bis(4-((5-(pyrazin-2-yl)-1H-pyrazol-1-yl)methyl)benzyl)-1,7,13,19-tetraoxa-4,10,16,22-tetraazacyclotetracosan-2,5,8,11,14,17,20,23-octaone] | 0.001 to 0.01 | 10 to 100
2 | COC(C)c1ccnn1Cc1ccc(C[C@H]2OC(=O)[C@H](CC(C)C)N(C)C(=O)[C@@H](C)OC(=O)[C@H](CC(C)C)N(C)C(=O)[C@@H](Cc3ccc(Cn4nccc4C(C)OC)cc3)OC(=O)[C@H](CC(C)C)N(C)C(=O)[C@@H](C)OC(=O)[C@H](CC(C)C)N(C)C2=O)cc1 (stereo partly drawn) [Example 1b-212, (3S,6R,9S,12R,15S,18R,21S,24R)-3,9,15,21-tetraisobutyl-6,18-bis(4-((5-(1-methoxyethyl)-1H-pyrazol-1-yl)methyl)benzyl)-4,10,12,16,22,24-hexamethyl-1,7,13,19-tetraoxa-4,10,16,22-tetraazacyclotetracosan-2,5,8,11,14,17,20,23-octaone] | 0.0001 to 0.001 | ≤ 1
3 | CC(C)C[C@H]1C(=O)O[C@H](Cc2ccc(C3(n4cccn4)CCC3)cc2)C(=O)N(C)[C@@H](CC(C)C)C(=O)O[C@H](C)C(=O)N(C)[C@@H](CC(C)C)C(=O)O[C@H](Cc2ccc(C3(n4cccn4)CCC3)cc2)C(=O)N(C)[C@@H](CC(C)C)C(=O)O[C@H](C)C(=O)N1C [Example 1c-1, (3S,6R,9S,12R,15S,18R,21S,24R)-6,18-bis(4-(1-(1H-pyrazol-1-yl)cyclobutyl)benzyl)-3,9,15,21-tetraisobutyl-4,10,12,16,22,24-hexamethyl-1,7,13,19-tetraoxa-4,10,16,22-tetraazacyclotetracosan-2,5,8,11,14,17,20,23-octaone] | ≤ 0.0001 | ≤ 1
4 | CC(C)C[C@H]1C(=O)O[C@H](Cc2ccc(C3(n4cc(OC(C)C)cn4)CCC3)cc2)C(=O)N(C)[C@@H](CC(C)C)C(=O)O[C@H](C)C(=O)N(C)[C@@H](CC(C)C)C(=O)O[C@H](Cc2ccc(C3(n4cc(OC(C)C)cn4)CCC3)cc2)C(=O)N(C)[C@@H](CC(C)C)C(=O)O[C@H](C)C(=O)N1C [Example 1c-3, (3S,6R,9S,12R,15S,18R,21S,24R)-3,9,15,21-tetraisobutyl-6,18-bis(4-(1-(4-isopropoxy-1H-pyrazol-1-yl)cyclobutyl)benzyl)-4,10,12,16,22,24-hexamethyl-1,7,13,19-tetraoxa-4,10,16,22-tetraazacyclotetracosan-2,5,8,11,14,17,20,23-octaone] | ≤ 0.0001 | ≤ 1
5 | CC(C)C[C@H]1C(=O)O[C@H](Cc2ccc(C(C3CC3)n3cccn3)cc2)C(=O)N(C)[C@@H](CC(C)C)C(=O)O[C@H](C)C(=O)N(C)[C@@H](CC(C)C)C(=O)O[C@H](Cc2ccc(C(C3CC3)n3cccn3)cc2)C(=O)N(C)[C@@H](CC(C)C)C(=O)O[C@H](C)C(=O)N1C (stereo partly drawn) [Example 1c-4, (3S,6R,9S,12R,15S,18R,21S,24R)-6,18-bis(4-(cyclopropyl(1H-pyrazol-1-yl)methyl)benzyl)-3,9,15,21-tetraisobutyl-4,10,12,16,22,24-hexamethyl-1,7,13,19-tetraoxa-4,10,16,22-tetraazacyclotetracosan-2,5,8,11,14,17,20,23-octaone] | 0.0001 to 0.001 | ≤ 1
6 | CC(C)C[C@H]1C(=O)O[C@H](Cc2ccc(C(C)(C)n3cccn3)cc2)C(=O)N(C)[C@@H](CC(C)C)C(=O)O[C@H](C)C(=O)N(C)[C@@H](CC(C)C)C(=O)O[C@H](Cc2ccc(C(C)(C)n3cccn3)cc2)C(=O)N(C)[C@@H](CC(C)C)C(=O)O[C@H](C)C(=O)N1C [Example 1c-6, (3S,6R,9S,12R,15S,18R,21S,24R)-6,18-bis(4-(2-(1H-pyrazol-1-yl)propan-2-yl)benzyl)-3,9,15,21-tetraisobutyl-4,10,12,16,22,24-hexamethyl-1,7,13,19-tetraoxa-4,10,16,22-tetraazacyclotetracosan-2,5,8,11,14,17,20,23-octaone] | ≤ 0.0001 | ≤ 1
7 | CC(C)C[C@H]1C(=O)O[C@H](Cc2ccc(C(C)(C)n3cc(OC(C)C)cn3)cc2)C(=O)N(C)[C@@H](CC(C)C)C(=O)O[C@H](C)C(=O)N(C)[C@@H](CC(C)C)C(=O)O[C@H](Cc2ccc(C(C)(C)n3cc(OC(C)C)cn3)cc2)C(=O)N(C)[C@@H](CC(C)C)C(=O)O[C@H](C)C(=O)N1C [Example 1c-10, (3S,6R,9S,12R,15S,18R,21S,24R)-3,9,15,21-tetraisobutyl-6,18-bis(4-(2-(4-isopropoxy-1H-pyrazol-1-yl)propan-2-yl)benzyl)-4,10,12,16,22,24-hexamethyl-1,7,13,19-tetraoxa-4,10,16,22-tetraazacyclotetracosan-2,5,8,11,14,17,20,23-octaone] | ≤ 0.0001 | ≤ 1
8 | CC(C)C[C@H]1C(=O)O[C@H](Cc2ccc(Cn3cccn3)cc2)C(=O)N(C)[C@@H](CC(C)C)C(=O)O[C@H](C)C(=O)N(C)[C@@H](CC(C)C)C(=O)O[C@H](Cc2ccccc2)C(=O)N(C)[C@@H](CC(C)C)C(=O)O[C@H](C)C(=O)N1C [Example 2-1, (3S,6R,9S,12R,15S,18R,21S,24R)-6-benzyl-3,9,15,21-tetraisobutyl-4,10,12,16,22,24-hexamethyl-18-[[4-(pyrazol-1-ylmethyl)phenyl]methyl]-1,7,13,19-tetraoxa-4,10,16,22-tetrazacyclotetracosane-2,5,8,11,14,17,20,23-octaone] | 0.0001 to 0.001 | 1 to 10
9 | CC(C)C[C@H]1C(=O)O[C@H](Cc2ccc(Cn3ccnc3Br)cc2)C(=O)N(C)[C@@H](CC(C)C)C(=O)O[C@H](C)C(=O)N(C)[C@@H](CC(C)C)C(=O)O[C@H](Cc2ccc(Cn3ccnc3Br)cc2)C(=O)N(C)[C@@H](CC(C)C)C(=O)O[C@H](C)C(=O)N1C [Example 6-3, (3S,6R,9S,12R,15S,18R,21S,24R)-6,18-bis[[4-[(2-bromoimidazol-1-yl)methyl]phenyl]methyl]-3,9,15,21-tetraisobutyl-4,10,12,16,22,24-hexamethyl-1,7,13,19-tetraoxa-4,10,16,22-tetrazacyclotetracosane-2,5,8,11,14,17,20,23-octaone] | ≤ 0.0001 | 1 to 10
10 | CC(C)C[C@H]1C(=O)O[C@H](Cc2ccc(Cn3ccnc3Cl)cc2)C(=O)N(C)[C@@H](CC(C)C)C(=O)O[C@H](C)C(=O)N(C)[C@@H](CC(C)C)C(=O)O[C@H](Cc2ccc(Cn3ccnc3Cl)cc2)C(=O)N(C)[C@@H](CC(C)C)C(=O)O[C@H](C)C(=O)N1C [Example 6-9, (3S,6R,9S,12R,15S,18R,21S,24R)-6,18-bis(4-((2-chloro-1H-imidazol-1-yl)methyl)benzyl)-3,9,15,21-tetraisobutyl-4,10,12,16,22,24-hexamethyl-1,7,13,19-tetraoxa-4,10,16,22-tetraazacyclotetracosan-2,5,8,11,14,17,20,23-octaone] | ≤ 0.0001 | 1 to 10
